From patent publication US20020019536A1, “NEW URETHANES, THIO AND DITHIO ANALOGUES AND THEIR USE AS INHIBITORS OF CHOLESTEROL BIOSYNTHESIS” (priority 1997, published 2002)

Key:
[1] = target: T1, 2,3-epoxysqualene-lanosterol-cyclase (Rattus norvegicus, UniProt P48450); experiment: In-vivo activity in the rat after oral administration: 2,3-epoxysqualene level in the liver
T1 construct: Measuring the in-vivo Activity in the Rat after Oral Administration; from tissue; host or cells: living rat; 2,3-epoxysqualene measured in the liver
T1 sequence (P48450 1-733): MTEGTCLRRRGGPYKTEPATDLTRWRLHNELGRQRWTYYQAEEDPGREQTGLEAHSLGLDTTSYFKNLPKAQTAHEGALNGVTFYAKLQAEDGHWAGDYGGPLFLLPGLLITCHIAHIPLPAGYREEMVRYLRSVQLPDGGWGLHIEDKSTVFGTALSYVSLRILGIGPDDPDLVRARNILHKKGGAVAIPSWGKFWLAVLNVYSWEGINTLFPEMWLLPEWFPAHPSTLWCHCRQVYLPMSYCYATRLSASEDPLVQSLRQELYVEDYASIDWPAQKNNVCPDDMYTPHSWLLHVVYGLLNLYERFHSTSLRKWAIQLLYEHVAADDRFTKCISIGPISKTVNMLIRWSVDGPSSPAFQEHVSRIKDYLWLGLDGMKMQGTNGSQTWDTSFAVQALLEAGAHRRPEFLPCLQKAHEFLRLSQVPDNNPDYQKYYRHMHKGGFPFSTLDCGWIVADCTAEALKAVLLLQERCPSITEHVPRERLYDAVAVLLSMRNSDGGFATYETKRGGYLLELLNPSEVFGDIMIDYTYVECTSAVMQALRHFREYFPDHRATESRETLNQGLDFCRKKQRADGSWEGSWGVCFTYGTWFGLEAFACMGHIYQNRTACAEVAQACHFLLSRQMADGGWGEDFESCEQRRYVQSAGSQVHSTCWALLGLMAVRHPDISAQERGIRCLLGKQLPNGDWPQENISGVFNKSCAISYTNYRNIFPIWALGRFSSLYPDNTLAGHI
Protocol: II. Measuring the in-vivo Activity in the Rat after Oral Administration
Inhibiting the enzyme 2,3-epoxysqualene-lanosterol-cyclase causes an increase in the 2,3-epoxisqualene levels in the liver and plasma. The quantity of 2,3-epoxysqualene formed therefore serves as a direct measurement of the potency on the animal as a whole. The amounts were determined using the method described in J. Lipid. Res. 38, 564-575, [1997] at t=3 or 8 hours after administration of the substance in concentrations of c=0.01, 0.03, 0.1, 0.3 and 1.0 mg/kg. Table 3 which follows gives the results obtained for the abovementioned substances A, B, C, E, G, H, O and R by way of example.
In the control animals there were no measurable 2,3-epoxisqualene levels under these conditions.

[2] = test system: 14C-acetate incorporation into the steroids which can be precipitated with digitonin (cholesterol biosynthesis); experiment: Inhibition of 14C-acetate incorporation into the steroids which can be precipitated with digitonin; format: cell-based
From the text: I. Measuring the Inhibition of ^14C-acetate incorporation into the steroids which can be precipitated with digitonin: The inhibitory effect was investigated using the method described in J. Lipid. Res. 37, 148-157 [1996] at test concentrations of 10^−8 and 10^−9 mol/l.

[3] = test system: Cand. albicans ATCC 10231; experiment: Fungistatic activity, series dilution test; format: cell-based; conditions: Sabouraud broth, 2 to 4 days at 26° C.
Protocol: (§1) V. Determining the Fungistatic Activity
(§2) The fungistatic activity was determined by the series dilution test (microtitre system). Sabouraud broth was used as the nutrient medium. The inoculum amounted to about 10^4 to 10^5 CFU/ml (CFU=colony-forming units); the incubation period was 2 to 4 days at 26° C.
(§3) The lowest concentration which allows no visible growth (minimum inhibitory concentration MIC) was determined.
(§4) The abovementioned compounds B, E, G, I, K, L, N, Q and R were tested. The MIC is given in μg/ml.

[4] = test system: Sacch. carisbergensis ATCC 9080; experiment: Fungistatic activity, series dilution test; format: cell-based; conditions: Sabouraud broth, 2 to 4 days at 26° C.
Protocol: as §1, §2, §3, §4

Rhod. rubra 49 = experiment: Fungistatic activity, series dilution test; format: cell-based; conditions: Sabouraud broth, 2 to 4 days at 26° C.
Protocol: as §1, §2, §3, §4

Pen. notatum CBS 19746 = experiment: Fungistatic activity, series dilution test; format: cell-based; conditions: Sabouraud broth, 2 to 4 days at 26° C.
Protocol: as §1, §2, §3, §4

[5] = test system: Trich. mentagrophytes ATCC 9129; experiment: Fungistatic activity, series dilution test; format: cell-based; conditions: Sabouraud broth, 2 to 4 days at 26° C.
Protocol: as §1, §2, §3, §4

Asp. niger ATCC 16404 = experiment: Fungistatic activity, series dilution test; format: cell-based; conditions: Sabouraud broth, 2 to 4 days at 26° C.
Protocol: as §1, §2, §3, §4

[6] = 0.01 mg/kg oral, 3 h after administration
[7] = 0.01 mg/kg oral, 8 h after administration
[8] = 0.03 mg/kg oral, 3 h after administration
[9] = 0.03 mg/kg oral, 8 h after administration
[10] = 0.1 mg/kg oral, 3 h after administration
[11] = 0.1 mg/kg oral, 8 h after administration
[12] = 1.0 mg/kg oral, 3 h after administration
[13] = 1.0 mg/kg oral, 8 h after administration
[14] = 0.3 mg/kg oral, 3 h after administration
[15] = 0.3 mg/kg oral, 8 h after administration

Row | 2,3-epoxysqualene concentration in the liver (rat) [1, 6] | 2,3-epoxysqualene concentration in the liver (rat) [1, 7] | 2,3-epoxysqualene concentration in the liver (rat) [1, 8] | 2,3-epoxysqualene concentration in the liver (rat) [1, 9] | 2,3-epoxysqualene concentration in the liver (rat) [1, 10] | 2,3-epoxysqualene concentration in the liver (rat) [1, 11] | 2,3-epoxysqualene concentration in the liver (rat) [1, 12] | 2,3-epoxysqualene concentration in the liver (rat) [1, 13] | 2,3-epoxysqualene concentration in the liver (rat) [1, 14] | 2,3-epoxysqualene concentration in the liver (rat) [1, 15] | SMILES | percentage inhibition of 14C-acetate incorporation ([2]; test concentration 10^−8 mol/l) | percentage inhibition of 14C-acetate incorporation ([2]; test concentration 10^−9 mol/l) | IC50 ([2]; 14C-acetate incorporation) | MIC Cand. [3] | MIC Sacc. [4] | MIC Rhod. (Rhod. rubra 49) | MIC Pen. (Pen. notatum CBS 19746) | MIC Trich. [5] | MIC Asp. (Asp. niger ATCC 16404)
1 | 0.0 µg/g | 14.6 µg/g | 11.8 µg/g | 66.0 µg/g | 62.6 µg/g | 312.5 µg/g | 136.5 µg/g | 291.9 µg/g | – | – | CN(C)Cc1ccc([C@H]2CC[C@H](N(C)C(=S)Sc3ccc(Cl)cc3)CC2)cc1 [A, trans-S-(4-chlorophenyl)-N-4-[4-(dimethylaminomethyl)-phenyl]cyclohexyl-N-methyldithiocarbamate] | −85% | −39% | – | – | – | – | – | – | –
2 | 0.0 µg/g | 84.8 µg/g | 33.1 µg/g | 57.8 µg/g | 47.0 µg/g | 133.1 µg/g | 68.1 µg/g | 243.9 µg/g | 77.8 µg/g | 196.5 µg/g | CN(C)Cc1ccc([C@H]2CC[C@H](N(C)C(=S)SCc3ccc(F)cc3)CC2)cc1.Cl [C, trans-S-(4-fluorobenzyl)-N-4-[4-(dimethylaminomethyl)-phenyl]cyclohexyl-N-methyldithiocarbamate-hydrochloride] | −87% | −52% | – | – | – | – | – | – | –
3 | 2.9 µg/g | 31.3 µg/g | 25.7 µg/g | 25.3 µg/g | 117.7 µg/g | 202.3 µg/g | – | – | 70.3 µg/g | 112.6 µg/g | CN(C)Cc1ccc([C@H]2CC[C@H](N(C)C(=O)Sc3ccc(Cl)cc3)CC2)cc1.Cl [H, trans-S-(4-chlorophenyl)-N-4-[4-(dimethylaminomethyl)-phenyl]cyclohexyl-N-methylthiocarbamate-hydrochloride] | −87% | −65% | 0.5 nM | – | – | – | – | – | –

Second part, the compound before the results:

Row | SMILES | 2,3-epoxysqualene concentration in the liver (rat) [1, 6] | 2,3-epoxysqualene concentration in the liver (rat) [1, 7] | 2,3-epoxysqualene concentration in the liver (rat) [1, 8] | 2,3-epoxysqualene concentration in the liver (rat) [1, 9] | 2,3-epoxysqualene concentration in the liver (rat) [1, 10] | 2,3-epoxysqualene concentration in the liver (rat) [1, 11] | 2,3-epoxysqualene concentration in the liver (rat) [1, 12] | 2,3-epoxysqualene concentration in the liver (rat) [1, 13] | 2,3-epoxysqualene concentration in the liver (rat) [1, 14] | 2,3-epoxysqualene concentration in the liver (rat) [1, 15] | percentage inhibition of 14C-acetate incorporation ([2]; test concentration 10^−8 mol/l) | percentage inhibition of 14C-acetate incorporation ([2]; test concentration 10^−9 mol/l) | IC50 ([2]; 14C-acetate incorporation) | MIC Cand. [3] | MIC Sacc. [4] | MIC Rhod. (Rhod. rubra 49) | MIC Pen. (Pen. notatum CBS 19746) | MIC Trich. [5] | MIC Asp. (Asp. niger ATCC 16404)
4 | CN(C)Cc1ccc([C@H]2CC[C@H](N(C)C(=S)SCc3ccc(Cl)cc3)CC2)cc1.Cl [D, trans-S-(4-chlorobenzyl)-N-4-[4-(dimethylaminomethyl)-phenyl]cyclohexyl-N-methyldithiocarbamate-hydrochloride] | – | – | – | – | – | – | – | – | – | – | −85% | −51% | – | – | – | – | – | – | –
5 | CN(C)Cc1ccc([C@H]2CC[C@@H](N(C)C(=S)SCc3ccccc3)CC2)cc1.Cl [F, cis-S-benzyl-N-4-[4-(dimethylaminomethyl)phenyl]-cyclohexyl-N-methyldithiocarbamate-hydrochloride] | – | – | – | – | – | – | – | – | – | – | −83% | −40% | – | – | – | – | – | – | –
6 | CN(C(=O)Oc1ccc(Cl)cc1)[C@H]1CC[C@H](c2ccc(CN3CCCC3)cc2)CC1.Cl [K, trans-O-(4-chlorophenyl)-N-methyl-N-4-[4-(pyrrolidinomethyl)phenyl]cyclohexylcarbamate-hydrochloride] | – | – | – | – | – | – | – | – | – | – | −81% | −53% | – | 64 µg/mL | 128 µg/mL | 32 µg/mL | 8 µg/mL | 2 µg/mL | 16 µg/mL
